The test system of experiment [1] is rats with a history of chronic meth self-administration. Put plainly: Reinstatement of meth seeking. Type of experiment: in vivo. Particulars: 10 mg/kg i.p. just before reinstatement session (meth priming 1 mg/kg i.p. and cues), FIG. 3. The method, then:
DDD-024 was initially tested for effects on the reinstatement of meth seeking in a small pilot group of rats with a history of chronic meth self-administration. […] Rats received a vehicle (10% DMSO) or DDD-024 (10 mg/kg) injection (i.p.) just before each reinstatement session, which consisted of a meth priming injection (1 mg/kg, i.p.) and presentation of meth-associated cues (tone and light) upon each lever press.

The target in another experiment is T1, α-Adrenergic α2C (Homo sapiens, UniProt P18825).
T1 sequence (P18825 1-462): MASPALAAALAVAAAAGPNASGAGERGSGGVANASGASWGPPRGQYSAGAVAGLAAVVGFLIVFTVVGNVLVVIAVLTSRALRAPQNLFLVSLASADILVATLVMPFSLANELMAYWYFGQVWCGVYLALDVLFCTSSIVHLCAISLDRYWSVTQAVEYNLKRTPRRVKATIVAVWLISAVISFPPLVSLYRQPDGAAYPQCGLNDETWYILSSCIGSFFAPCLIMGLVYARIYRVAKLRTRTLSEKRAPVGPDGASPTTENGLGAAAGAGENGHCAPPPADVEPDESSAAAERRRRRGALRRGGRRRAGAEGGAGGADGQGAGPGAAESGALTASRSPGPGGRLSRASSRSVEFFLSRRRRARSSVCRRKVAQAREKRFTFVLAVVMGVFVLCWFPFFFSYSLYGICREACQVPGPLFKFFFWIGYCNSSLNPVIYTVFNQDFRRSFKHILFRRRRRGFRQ
Put plainly: Receptor binding, α2C.

Another experiment concerns the target Serotonin 5-HT7 (Homo sapiens, UniProt P34969). Put plainly: Receptor binding, 5-HT7.
The target in the next experiment is Dopamine D4 (Homo sapiens, UniProt P21917). Put plainly: Receptor binding, D4.
Dopamine D4, sequence (P21917 whole entry): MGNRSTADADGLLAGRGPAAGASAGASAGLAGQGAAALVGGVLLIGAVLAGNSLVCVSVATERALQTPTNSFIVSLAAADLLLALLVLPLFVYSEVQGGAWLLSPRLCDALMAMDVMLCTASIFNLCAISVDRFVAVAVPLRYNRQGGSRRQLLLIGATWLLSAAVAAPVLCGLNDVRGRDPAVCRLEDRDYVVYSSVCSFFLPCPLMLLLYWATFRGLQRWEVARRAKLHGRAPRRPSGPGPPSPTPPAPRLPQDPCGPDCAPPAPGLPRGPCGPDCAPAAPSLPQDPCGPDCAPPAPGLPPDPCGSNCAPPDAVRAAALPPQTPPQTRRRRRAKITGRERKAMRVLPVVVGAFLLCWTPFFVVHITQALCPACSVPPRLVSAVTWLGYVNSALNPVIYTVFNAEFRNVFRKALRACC
Another experiment deals with Dopamine D5 (Homo sapiens, UniProt P21918). Put plainly: Receptor binding, D5.
The target in another experiment is Serotonin 5-HT3 (Homo sapiens, UniProt P46098). Put plainly: Receptor binding, 5-HT3.
Serotonin 5-HT3, sequence (P46098 24-478): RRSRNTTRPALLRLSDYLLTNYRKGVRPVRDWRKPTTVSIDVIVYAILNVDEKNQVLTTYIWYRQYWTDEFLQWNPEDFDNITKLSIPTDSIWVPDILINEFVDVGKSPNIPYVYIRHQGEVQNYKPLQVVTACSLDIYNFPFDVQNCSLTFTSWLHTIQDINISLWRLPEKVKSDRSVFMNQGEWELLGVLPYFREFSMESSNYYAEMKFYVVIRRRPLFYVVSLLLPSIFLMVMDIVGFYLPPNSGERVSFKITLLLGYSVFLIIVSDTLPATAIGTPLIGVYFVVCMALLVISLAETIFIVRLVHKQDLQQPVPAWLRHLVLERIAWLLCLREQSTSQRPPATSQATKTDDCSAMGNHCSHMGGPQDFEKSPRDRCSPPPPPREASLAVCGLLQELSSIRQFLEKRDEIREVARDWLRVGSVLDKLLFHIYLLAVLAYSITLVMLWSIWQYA
The target of another experiment is β-Adrenergic β1 (Homo sapiens, UniProt P08588). The experiment in a line: Receptor binding, β1.
β-Adrenergic β1, sequence (P08588 whole entry): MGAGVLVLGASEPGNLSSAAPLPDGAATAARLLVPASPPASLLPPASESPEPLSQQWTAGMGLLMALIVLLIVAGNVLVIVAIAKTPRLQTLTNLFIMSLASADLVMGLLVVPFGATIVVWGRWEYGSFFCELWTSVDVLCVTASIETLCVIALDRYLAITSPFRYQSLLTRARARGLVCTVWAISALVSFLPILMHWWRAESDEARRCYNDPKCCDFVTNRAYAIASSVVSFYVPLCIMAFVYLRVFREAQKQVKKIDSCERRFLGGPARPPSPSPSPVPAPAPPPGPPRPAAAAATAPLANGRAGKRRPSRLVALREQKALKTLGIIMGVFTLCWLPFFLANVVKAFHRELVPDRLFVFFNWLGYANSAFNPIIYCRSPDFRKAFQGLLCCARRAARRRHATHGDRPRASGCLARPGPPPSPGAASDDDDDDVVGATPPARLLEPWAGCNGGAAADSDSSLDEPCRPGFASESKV
A further experiment concerns the target T2, Serotonin 5-HT2C (Homo sapiens, UniProt P28335).
T2 sequence (P28335 33-458): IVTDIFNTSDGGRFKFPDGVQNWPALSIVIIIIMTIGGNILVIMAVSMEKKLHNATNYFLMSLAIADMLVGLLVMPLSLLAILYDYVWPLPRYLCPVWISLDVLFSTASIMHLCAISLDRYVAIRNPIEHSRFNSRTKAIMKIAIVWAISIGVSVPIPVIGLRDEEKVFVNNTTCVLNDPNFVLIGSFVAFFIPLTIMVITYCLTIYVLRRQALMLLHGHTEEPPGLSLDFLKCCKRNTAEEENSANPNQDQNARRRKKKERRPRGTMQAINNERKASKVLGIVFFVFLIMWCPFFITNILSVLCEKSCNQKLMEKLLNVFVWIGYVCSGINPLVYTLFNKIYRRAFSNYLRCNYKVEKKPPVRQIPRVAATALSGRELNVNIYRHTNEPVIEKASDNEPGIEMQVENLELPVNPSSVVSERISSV
Put plainly: Receptor binding, 5-HT2C.

For another experiment, the target named is α-Adrenergic α1A (Homo sapiens, UniProt P35348). The experiment in a line: Receptor binding, α1A.
α-Adrenergic α1A, sequence (P35348 whole entry): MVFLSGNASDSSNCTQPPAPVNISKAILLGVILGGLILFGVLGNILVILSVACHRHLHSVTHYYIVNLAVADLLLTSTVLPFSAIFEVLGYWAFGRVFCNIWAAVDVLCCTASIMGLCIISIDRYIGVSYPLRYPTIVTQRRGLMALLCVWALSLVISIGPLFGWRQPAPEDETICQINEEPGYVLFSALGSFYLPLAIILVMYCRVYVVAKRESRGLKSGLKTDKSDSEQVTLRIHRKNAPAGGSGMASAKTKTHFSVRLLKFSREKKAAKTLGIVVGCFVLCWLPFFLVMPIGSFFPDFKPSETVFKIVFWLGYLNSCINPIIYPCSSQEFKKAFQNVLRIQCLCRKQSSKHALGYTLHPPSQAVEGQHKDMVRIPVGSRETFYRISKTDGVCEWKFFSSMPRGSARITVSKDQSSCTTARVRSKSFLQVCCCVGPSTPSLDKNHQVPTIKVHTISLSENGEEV
The next experiment concerns the target α-Adrenergic α1B (Homo sapiens, UniProt P35368). The experiment in a line: Receptor binding, α1B.
The target in a further experiment is Histamine H2 (Homo sapiens, UniProt P25021). The experiment in a line: Receptor binding, H2.
Histamine H2, sequence (P25021 whole entry): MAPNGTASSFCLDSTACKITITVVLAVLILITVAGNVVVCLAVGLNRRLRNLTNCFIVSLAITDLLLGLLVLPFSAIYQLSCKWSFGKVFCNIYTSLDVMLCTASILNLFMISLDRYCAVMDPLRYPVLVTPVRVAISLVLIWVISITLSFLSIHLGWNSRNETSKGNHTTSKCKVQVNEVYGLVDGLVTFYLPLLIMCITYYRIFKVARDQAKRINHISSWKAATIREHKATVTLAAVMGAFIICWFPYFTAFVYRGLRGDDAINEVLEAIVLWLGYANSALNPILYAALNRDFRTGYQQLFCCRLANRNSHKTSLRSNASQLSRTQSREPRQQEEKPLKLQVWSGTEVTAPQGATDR
For a further experiment, the target named is Muscarinic M1 (Homo sapiens, UniProt P11229). The experiment in a line: Receptor binding, M1.
Muscarinic M1, sequence (P11229 whole entry): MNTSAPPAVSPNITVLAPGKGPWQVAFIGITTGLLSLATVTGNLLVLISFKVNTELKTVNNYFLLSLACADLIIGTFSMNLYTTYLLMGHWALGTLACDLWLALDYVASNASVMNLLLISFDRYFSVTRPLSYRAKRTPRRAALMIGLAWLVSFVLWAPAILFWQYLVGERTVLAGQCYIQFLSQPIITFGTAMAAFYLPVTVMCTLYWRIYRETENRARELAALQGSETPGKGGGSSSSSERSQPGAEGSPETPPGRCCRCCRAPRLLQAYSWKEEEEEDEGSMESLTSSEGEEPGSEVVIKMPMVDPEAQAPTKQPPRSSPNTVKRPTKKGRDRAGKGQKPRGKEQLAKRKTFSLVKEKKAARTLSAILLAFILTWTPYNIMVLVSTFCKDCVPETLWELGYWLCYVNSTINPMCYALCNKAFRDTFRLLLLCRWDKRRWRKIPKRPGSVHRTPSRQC
The target in the next experiment is Sigma σ1 (Homo sapiens, UniProt Q99720). The experiment in a line: Receptor binding, σ1.
Sigma σ1, sequence (Q99720 whole entry): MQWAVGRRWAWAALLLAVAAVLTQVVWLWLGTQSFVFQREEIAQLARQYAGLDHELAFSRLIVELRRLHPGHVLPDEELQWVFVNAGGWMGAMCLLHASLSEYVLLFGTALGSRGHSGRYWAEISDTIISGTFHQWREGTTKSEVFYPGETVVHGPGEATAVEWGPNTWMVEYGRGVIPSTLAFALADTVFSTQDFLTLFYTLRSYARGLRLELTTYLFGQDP
The target of the next experiment is Muscarinic M4 (Homo sapiens, UniProt P08173). The experiment in a line: Receptor binding, M4.
Muscarinic M4, sequence (P08173 whole entry): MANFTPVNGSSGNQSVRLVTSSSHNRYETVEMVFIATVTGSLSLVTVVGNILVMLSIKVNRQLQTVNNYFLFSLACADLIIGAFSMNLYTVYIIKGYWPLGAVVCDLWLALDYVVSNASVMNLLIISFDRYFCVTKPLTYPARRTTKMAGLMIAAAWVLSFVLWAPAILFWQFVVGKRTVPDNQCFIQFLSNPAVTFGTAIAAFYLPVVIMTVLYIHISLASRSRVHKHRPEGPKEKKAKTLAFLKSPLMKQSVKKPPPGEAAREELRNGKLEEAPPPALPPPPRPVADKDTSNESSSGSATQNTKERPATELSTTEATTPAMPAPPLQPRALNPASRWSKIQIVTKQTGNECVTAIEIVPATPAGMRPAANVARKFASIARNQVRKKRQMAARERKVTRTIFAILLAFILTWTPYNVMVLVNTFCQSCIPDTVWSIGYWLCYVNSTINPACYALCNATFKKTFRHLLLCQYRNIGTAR
A further experiment has as its target T3, α-Adrenergic α2B (Homo sapiens, UniProt P18089).
T3 sequence (P18089 1-450): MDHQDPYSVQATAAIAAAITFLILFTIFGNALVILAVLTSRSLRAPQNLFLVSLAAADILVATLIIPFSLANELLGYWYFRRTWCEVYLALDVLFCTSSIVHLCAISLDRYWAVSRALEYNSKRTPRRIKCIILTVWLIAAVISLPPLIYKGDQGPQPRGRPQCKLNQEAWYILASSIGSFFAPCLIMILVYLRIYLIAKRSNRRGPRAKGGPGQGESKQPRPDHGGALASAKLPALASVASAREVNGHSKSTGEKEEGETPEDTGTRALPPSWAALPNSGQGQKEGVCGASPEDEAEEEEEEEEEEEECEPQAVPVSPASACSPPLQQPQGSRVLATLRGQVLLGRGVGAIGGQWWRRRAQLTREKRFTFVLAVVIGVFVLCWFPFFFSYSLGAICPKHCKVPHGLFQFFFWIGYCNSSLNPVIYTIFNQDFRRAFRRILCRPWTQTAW
The experiment in a line: Receptor binding, α2B.

Another experiment has as its target T4, α-Adrenergic α2A (Homo sapiens, UniProt P08913).
T4 sequence (P08913 1-465): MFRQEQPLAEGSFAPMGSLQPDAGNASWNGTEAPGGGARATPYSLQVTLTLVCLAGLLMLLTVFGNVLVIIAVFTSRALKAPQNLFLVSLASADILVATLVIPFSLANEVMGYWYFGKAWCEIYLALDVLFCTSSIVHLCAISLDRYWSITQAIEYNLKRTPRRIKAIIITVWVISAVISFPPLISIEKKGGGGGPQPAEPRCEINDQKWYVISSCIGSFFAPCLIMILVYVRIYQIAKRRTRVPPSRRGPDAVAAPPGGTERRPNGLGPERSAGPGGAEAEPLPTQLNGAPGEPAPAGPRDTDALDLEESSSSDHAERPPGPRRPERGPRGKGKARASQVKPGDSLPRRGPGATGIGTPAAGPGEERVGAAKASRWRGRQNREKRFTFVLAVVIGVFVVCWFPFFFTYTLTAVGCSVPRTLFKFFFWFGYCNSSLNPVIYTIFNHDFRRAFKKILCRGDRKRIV
The experiment in a line: Receptor binding, α2A.

For a further experiment, the target named is β-Adrenergic β3 (Homo sapiens, UniProt P13945). The experiment in a line: Receptor binding, β3.
β-Adrenergic β3, sequence (P13945 whole entry): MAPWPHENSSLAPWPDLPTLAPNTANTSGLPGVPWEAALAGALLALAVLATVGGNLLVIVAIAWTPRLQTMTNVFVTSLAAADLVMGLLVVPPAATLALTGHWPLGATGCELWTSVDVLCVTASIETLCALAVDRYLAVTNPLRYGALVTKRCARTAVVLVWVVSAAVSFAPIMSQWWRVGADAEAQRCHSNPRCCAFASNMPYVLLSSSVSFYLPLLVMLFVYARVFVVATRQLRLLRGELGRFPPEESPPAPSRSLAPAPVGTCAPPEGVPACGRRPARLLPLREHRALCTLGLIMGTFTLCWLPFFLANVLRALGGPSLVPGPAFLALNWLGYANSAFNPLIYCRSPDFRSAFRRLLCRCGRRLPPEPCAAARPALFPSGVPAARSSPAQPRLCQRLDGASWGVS

Usually Ki stands for a measure of affinity in units of concentration, obtained from inhibition or displacement. The low end stands for higher affinity, the high end for lower affinity.

Bounds are passed on as bounds.

Serotonin 5-HT7, sequence (P34969 whole entry): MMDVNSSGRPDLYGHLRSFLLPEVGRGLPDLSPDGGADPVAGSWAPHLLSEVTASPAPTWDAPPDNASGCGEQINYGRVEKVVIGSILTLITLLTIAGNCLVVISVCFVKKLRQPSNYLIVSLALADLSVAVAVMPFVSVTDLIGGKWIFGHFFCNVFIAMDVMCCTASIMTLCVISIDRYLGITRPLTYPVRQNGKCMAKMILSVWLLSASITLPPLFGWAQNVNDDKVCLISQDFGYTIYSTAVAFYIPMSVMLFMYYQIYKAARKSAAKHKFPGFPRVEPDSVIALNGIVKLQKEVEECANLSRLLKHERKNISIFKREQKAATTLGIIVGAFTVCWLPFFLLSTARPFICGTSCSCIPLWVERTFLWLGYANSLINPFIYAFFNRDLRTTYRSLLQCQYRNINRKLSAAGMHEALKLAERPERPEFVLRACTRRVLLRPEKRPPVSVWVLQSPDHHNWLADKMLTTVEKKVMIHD
α-Adrenergic α1B, sequence (P35368 whole entry): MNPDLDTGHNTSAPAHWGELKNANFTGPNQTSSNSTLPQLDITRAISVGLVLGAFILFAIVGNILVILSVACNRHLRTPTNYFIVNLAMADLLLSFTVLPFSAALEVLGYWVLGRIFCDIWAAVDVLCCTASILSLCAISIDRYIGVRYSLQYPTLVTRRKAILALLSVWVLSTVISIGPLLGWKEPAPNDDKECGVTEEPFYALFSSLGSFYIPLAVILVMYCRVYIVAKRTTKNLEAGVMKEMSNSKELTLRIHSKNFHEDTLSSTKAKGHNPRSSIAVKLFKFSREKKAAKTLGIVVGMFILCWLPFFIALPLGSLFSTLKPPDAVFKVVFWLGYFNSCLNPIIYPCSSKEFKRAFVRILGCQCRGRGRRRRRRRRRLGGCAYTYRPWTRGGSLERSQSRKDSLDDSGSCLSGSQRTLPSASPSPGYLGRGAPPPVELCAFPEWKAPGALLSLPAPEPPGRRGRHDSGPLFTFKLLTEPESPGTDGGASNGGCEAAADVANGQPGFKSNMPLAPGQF

On to `CN1CCc2c(c3cccc4c3n2Cc2ccccc2O4)C1` [Compound 13b], for which the “number of lever presses (meth seeking behavior)” value in experiment [1] was “significantly reduced”. Further, the Ki at α-Adrenergic α2C was 0.507 µM; at Serotonin 5-HT7 (5-HT7), 0.258 µM; on Dopamine D4 it was > 10 µM; at Dopamine D5, > 10 µM; on Serotonin 5-HT3 it was > 10 µM; on β-Adrenergic β1 it was > 10 µM. Also, the Ki is 0.247 µM at Serotonin 5-HT2C (5-HT2C); 5.86 µM on α-Adrenergic α1A; > 10 µM at α-Adrenergic α1B; 4.73 µM at Histamine H2; > 10 µM at Muscarinic M1; 0.22 µM at Sigma σ1. Besides, the Ki at Muscarinic M4 is > 10 µM; on α-Adrenergic α2B, > 10 µM; at α-Adrenergic α2A it was 1.46 µM; at β-Adrenergic β3, > 10 µM. Also, the “binding, in words” value on Serotonin 5-HT7 (5-HT7, text summary of Table 1) was “moderate binding”; at Serotonin 5-HT2C (HT2c, summary of Table 1), “moderate binding”.

The values are drawn from patent US9598414B2, “Substituted benzo[5,6]azepino[3,2,1-hi]pyrido[4,3-b]indoles and substituted benzo[6,7][1,4]oxazepino[2,3,4-hi]pyrido[4,3-b]indoles for treating CNS disorders” (Daya Drug Discoveries, Inc., priority 2013, dated 2017).
